Source: patent US6071950A, “N-substituted pyrrolidine derivatives and process for preparing the same” (Kyorin Pharmaceutical Co., Ltd., priority 1996, dated 2000)

Tests used:
[1] = molecular target: T1, ileum muscarine receptors (Cavia porcellus, UniProt H0W1Z3); experiment: Antagonism on the acetylcholine-induced contraction of ileum (in vitro test); settings: guinea pig ileum, Schild plot, acetylcholine 10^-9 M~3×10^-6 M, 28° C., read-out: pA2 Ileum (converted)
T1 construct: The ileum was removed to make a 1.5 to 2 cm preparation; from tissue; host or cells: isolated ileum of Hartley male guinea pig
T1 sequence (H0W1Z3 1-590): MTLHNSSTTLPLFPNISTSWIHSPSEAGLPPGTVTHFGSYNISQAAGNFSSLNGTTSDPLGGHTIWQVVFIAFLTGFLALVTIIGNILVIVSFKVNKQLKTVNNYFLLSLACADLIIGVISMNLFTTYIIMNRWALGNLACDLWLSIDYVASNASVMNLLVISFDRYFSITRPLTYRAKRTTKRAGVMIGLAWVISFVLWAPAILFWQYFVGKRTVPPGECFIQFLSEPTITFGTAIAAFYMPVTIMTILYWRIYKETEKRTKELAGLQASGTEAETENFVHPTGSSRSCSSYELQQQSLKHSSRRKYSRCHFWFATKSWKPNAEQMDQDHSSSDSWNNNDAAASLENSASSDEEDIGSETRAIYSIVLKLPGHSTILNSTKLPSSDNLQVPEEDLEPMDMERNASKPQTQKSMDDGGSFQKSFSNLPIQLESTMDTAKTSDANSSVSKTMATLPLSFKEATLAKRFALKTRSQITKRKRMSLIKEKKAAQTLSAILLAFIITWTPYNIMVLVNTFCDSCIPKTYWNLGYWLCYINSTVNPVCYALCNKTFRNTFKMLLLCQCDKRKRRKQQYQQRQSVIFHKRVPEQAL
Description: 1. Antagonism on the acetylcholine-induced contraction of ileum (in vitro test)
Hartley male guinea pig was killed by stunning and bleeding. The ileum was removed to make a 1.5 to 2 cm preparation. The preparation was mounted in a 10 ml organ bath filled with Tyrode's solution of 28° C. that was bubbled with 95% O2 /5% CO2. The initial resting tension of 1 g was applied to the preparation and measurement of isomeric muscle tension was recorded.
(§1) The action of testing drug is shown in terms of pA2 determined from Schild plot of the extent of right shift of the concentration-response curve on 10^-9 M~3×10^-6 M of acetylcholine.

[2] = molecular target: T2, heart muscarine receptors (Cavia porcellus, UniProt H0VRN8); experiment: Antagonism action on the acetylcholine-induced negative chronotropic action of atrium of heart (in vitro test); settings: guinea pig atrium of heart, Schild plot, acetylcholine 10^-9 M~3×10^-6 M, 32° C., read-out: pA2 Atrium (converted)
T2 construct: The heart was removed to make a preparation of atrium of heart; from tissue; host or cells: isolated atrium of Hartley male guinea pig
T2 sequence (H0VRN8 1-466): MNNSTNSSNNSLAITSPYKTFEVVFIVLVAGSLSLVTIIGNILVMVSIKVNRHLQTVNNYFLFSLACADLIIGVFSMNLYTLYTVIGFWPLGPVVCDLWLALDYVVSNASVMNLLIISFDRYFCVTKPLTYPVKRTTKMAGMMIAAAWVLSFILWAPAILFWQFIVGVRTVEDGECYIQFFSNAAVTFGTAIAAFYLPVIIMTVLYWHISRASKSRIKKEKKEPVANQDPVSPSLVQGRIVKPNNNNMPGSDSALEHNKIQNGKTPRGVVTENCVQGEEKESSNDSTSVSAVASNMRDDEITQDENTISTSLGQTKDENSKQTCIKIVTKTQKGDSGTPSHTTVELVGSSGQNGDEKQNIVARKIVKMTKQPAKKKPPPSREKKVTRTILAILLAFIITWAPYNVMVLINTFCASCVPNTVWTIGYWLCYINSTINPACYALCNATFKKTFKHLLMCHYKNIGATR
Description: 3. Antagonism action on the acetylcholine-induced negative chronotropic action of atrium of heart (in vitro test)
Hartley male guinea pig was killed by stunning and bleeding. The heart was removed to make a preparation of atrium of heart. The preparation was mounted in a 10 ml organ bath filled with Krebs-Henseleit solution of 32° C. that was bubbled with 95% O2 /5% CO2. The initial resting tension was made to be 0.5 g and measurement of isometric muscle tension was recorded.
as §1

pupil = experiment: Diameter of pupil in the restraint stress model (in vivo test); parameters: species or system rat; settings: Wistar male rats, 10 mg/kg orally
Description: (§2) 4. Inhibitory effect in the defecation model under restraint stress (in vivo test)
(§3) Wistar strain male rats were employed. Testing drug was administered orally at 10 mg/kg and, after 30 minutes, the restraint stress was given by fixing the forefeet of rat on back side under anesthetization with ether. Moreover, the diameter of pupil (mm) was also measured.
(§4) After allowed to stand for 1 hour in separate cage, the defecation level and diameter of pupil were measured.

[3] = system: defecation model under restraint stress; experiment: Inhibitory effect in the defecation model under restraint stress (in vivo test); parameters: species or system rat; settings: Wistar male rats; 10 mg/kg orally, restraint stress 30 minutes later; defecation measured after 1 hour
Description: as §2, §3, §4
The inhibitory rate of defecation was determined from following formula.

[4] = molecular target: T3, sphincter muscle of the pupil (Oryctolagus cuniculus, UniProt G1U308); experiment: Antagonism on the acetylcholine-induced contraction of pupil (in vitro test); settings: rabbit sphincter muscle of the pupil, Schild plot, acetylcholine 10^-6 M~10^-2 M, 30° C., read-out: pA2 Pupil (converted)
T3 construct: The eyeball was removed to make a preparation of sphincter muscle of the pupil; from tissue; host or cells: isolated pupillary sphincter muscle of Japanese white male rabbit
T3 sequence (G1U308 entry or part of it): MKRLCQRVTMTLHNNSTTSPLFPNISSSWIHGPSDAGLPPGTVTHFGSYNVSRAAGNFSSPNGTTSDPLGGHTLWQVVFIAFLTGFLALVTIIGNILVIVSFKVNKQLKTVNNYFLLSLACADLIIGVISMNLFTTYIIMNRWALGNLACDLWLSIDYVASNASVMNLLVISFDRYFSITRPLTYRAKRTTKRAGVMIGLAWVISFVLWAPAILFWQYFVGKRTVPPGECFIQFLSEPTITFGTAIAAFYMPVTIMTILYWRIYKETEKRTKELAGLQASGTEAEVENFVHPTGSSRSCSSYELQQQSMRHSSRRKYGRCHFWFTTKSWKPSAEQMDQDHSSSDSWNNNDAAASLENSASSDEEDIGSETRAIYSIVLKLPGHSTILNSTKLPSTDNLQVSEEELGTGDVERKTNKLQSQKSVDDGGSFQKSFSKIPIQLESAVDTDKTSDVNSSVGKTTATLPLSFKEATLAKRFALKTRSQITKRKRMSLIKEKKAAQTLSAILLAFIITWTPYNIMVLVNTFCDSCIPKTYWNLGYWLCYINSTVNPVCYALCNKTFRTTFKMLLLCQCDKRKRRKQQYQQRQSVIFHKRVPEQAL
Description: 2. Antagonism on the acetylcholine-induced contraction of pupil (in vitro test)
Japanese white male rabbit was anesthetized using sodium pentobarbital and killed by bleeding. The eyeball was removed to make a preparation of sphincter muscle of the pupil. The preparation was mounted in a 10 ml organ bath filled with Krebs solution of 30° C. that was bubbled with 95% O2 /5% CO2. The initial resting tension of 0.2 g was applied to the preparation and measurement of isometric muscle tension was recorded.
The action of testing drug is shown in terms of pA2 determined from Schild plot of the extent of right shift of the concentration-response curve on 10^-6 M~10^-2 M of acetylcholine.

For `NC(=O)C(CCN1CCC(OCc2cccc(Cl)c2)C1)(c1ccccc1)c1ccccc1` (stereo not drawn) [Example 9, 4-[3-(3-chlorobenzyloxy)pyrrolidine-1-yl]-2,2-diphenylbutaneamide], the Kb [1] was 25.1 nM, the Kb [2] was 631 nM and the “Diameter of pupil (mm), Immediately after restraint” value (pupil; Control 0.44) was 0.43 mm. The “Diameter of pupil (mm), After restraint” value (pupil; after 1 hour, Control 0.48) was 0.45 mm, the “Inhibitory rate of defecation (%)” value [3] was 48.9% and the Kb [4] was 50.1 nM.
